Test results reported in ChEMBL document CHEMBL4138187, “Novel 2-(2-arylmethylthio-4-chloro-5-methylbenzenesulfonyl)-1-(1,3,5-triazin-2-ylamino)guanidine derivatives: Inhibition of human carbonic anhydrase cytosolic isozymes I and II and the transmembrane tumor-associated isozymes IX and XII, anticancer activity, and molecular modeling studies” (Eur J Med Chem, 2018).

Columns and labels:
[1] = target: Carbonic anhydrase 1 (Homo sapiens, UniProt P00915)
Description: Inhibition of human carbonic anhydrase 1 by stopped-flow CO2 hydration assay

[2] = tested on: MCF7; assay: Cytotoxicity against human MCF7 cells after 72 hrs by MTT assay; assay type: functional, cell-based; details: MCF7, 72 h
[3] = target: Carbonic anhydrase 2 (Homo sapiens, UniProt P00918)
Description: Inhibition of human carbonic anhydrase 2 by stopped-flow CO2 hydration assay

[4] = target: Carbonic anhydrase 9 (Homo sapiens, UniProt Q16790)
Description: Inhibition of human carbonic anhydrase 9 by stopped-flow CO2 hydration assay

[5] = tested on: HCT-116; assay: Cytotoxicity against human HCT116 cells after 72 hrs by MTT assay; assay type: functional, cell-based; details: HCT-116, 72 h
[6] = tested on: HeLa; assay: Cytotoxicity against human HeLa cells after 72 hrs by MTT assay; assay type: functional, cell-based
[7] = tested on: HaCaT; assay: Cytotoxicity against human HaCaT cells after 72 hrs by MTT assay; assay type: cell-based

Carbonic anhydrase 1, sequence (P00915 whole entry): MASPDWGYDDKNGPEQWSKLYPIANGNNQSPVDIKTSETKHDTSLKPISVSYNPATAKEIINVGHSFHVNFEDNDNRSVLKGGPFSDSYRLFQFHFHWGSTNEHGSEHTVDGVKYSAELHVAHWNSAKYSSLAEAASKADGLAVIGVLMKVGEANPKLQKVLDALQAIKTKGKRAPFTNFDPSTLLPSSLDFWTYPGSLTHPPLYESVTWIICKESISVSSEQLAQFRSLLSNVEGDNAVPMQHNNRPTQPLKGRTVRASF

| Ki [1] | Ki [3] | Ki [4] | SMILES | IC50 [2] | IC50 [5] | IC50 [6] | IC50 [7] |
| --- | --- | --- | --- | --- | --- | --- | --- |
| 3340 nM | 933 nM | 3400 nM | N/C(=N\S(=O)(=O)c1ccccc1SCc1cccc2ccccc12)NNc1nc(Cl)nc(Nc2cccc(S(N)(=O)=O)c2)n1 | > 100000 nM | > 100000 nM | > 100000 nM | – |
| 294 nM | 38.8 nM | 46.9 nM | N/C(=N\S(=O)(=O)c1ccccc1SCc1ccccc1)NNc1nc(Cl)nc(NCc2ccc(S(N)(=O)=O)cc2)n1 | > 100000 nM | > 100000 nM | > 100000 nM | – |
| 514 nM | 89.5 nM | 47.1 nM | N/C(=N\S(=O)(=O)c1ccccc1SCc1ccc(C(F)(F)F)cc1)NNc1nc(Cl)nc(NCc2ccc(S(N)(=O)=O)cc2)n1 | > 100000 nM | > 100000 nM | > 100000 nM | – |
| 536 nM | 326 nM | 421 nM | N/C(=N\S(=O)(=O)c1ccccc1SCc1ccc(C(F)(F)F)cc1)NNc1nc(Cl)nc(Nc2cccc(S(N)(=O)=O)c2)n1 | > 100000 nM | > 100000 nM | > 100000 nM | – |
| 337 nM | 9.3 nM | 3340 nM | N/C(=N\S(=O)(=O)c1ccccc1SCc1cccc(C(F)(F)F)c1)NNc1nc(Cl)nc(Nc2cccc(S(N)(=O)=O)c2)n1 | > 100000 nM | > 100000 nM | > 100000 nM | – |
| 396 nM | 94.7 nM | 3970 nM | N/C(=N\S(=O)(=O)c1ccccc1SCc1ccccc1)NNc1nc(Cl)nc(Nc2cccc(S(N)(=O)=O)c2)n1 | > 100000 nM | > 100000 nM | > 100000 nM | – |
| 733 nM | 161 nM | 41.1 nM | N/C(=N\S(=O)(=O)c1ccccc1SCc1cccc2ccccc12)NNc1nc(Cl)nc(Nc2ccc(S(N)(=O)=O)cc2)n1 | – | – | 17000 nM | 61000 nM |
| 219 nM | 5.4 nM | 43.6 nM | N/C(=N\S(=O)(=O)c1ccccc1SCc1cccc(C(F)(F)F)c1)NNc1nc(Cl)nc(NCc2ccc(S(N)(=O)=O)cc2)n1 | > 100000 nM | > 100000 nM | > 100000 nM | – |
| 2140 nM | 187 nM | 383 nM | N/C(=N\S(=O)(=O)c1ccccc1SCc1cccc2ccccc12)NNc1nc(Cl)nc(NCc2ccc(S(N)(=O)=O)cc2)n1 | > 100000 nM | > 100000 nM | > 100000 nM | – |
| 386 nM | 22 nM | 42.9 nM | N/C(=N\S(=O)(=O)c1ccccc1SCc1ccc(C(F)(F)F)cc1)NNc1nc(Cl)nc(Nc2ccc(S(N)(=O)=O)cc2)n1 | > 100000 nM | > 100000 nM | > 100000 nM | – |
| 148 nM | 7.4 nM | 37.1 nM | N/C(=N\S(=O)(=O)c1ccccc1SCc1cccc(C(F)(F)F)c1)NNc1nc(Cl)nc(Nc2ccc(S(N)(=O)=O)cc2)n1 | > 100000 nM | > 100000 nM | > 100000 nM | – |
| 66.6 nM | 83.7 nM | 39.4 nM | N/C(=N\S(=O)(=O)c1ccccc1SCc1ccccc1)NNc1nc(Cl)nc(Nc2ccc(S(N)(=O)=O)cc2)n1 | > 100000 nM | > 100000 nM | > 100000 nM | – |
